Reference: US20170226139A1, “CRYSTALLINE SALTS OF (Z)-O-OCTADEC-9-EN-1-YL O,O-DIHYDROGEN PHOSPHOROTHIOATE” (priority 2013, published 2017)
Like-named read-outs stand apart in the source and are kept apart here.

Tests used:
Beagle dogs = assay: Single-dose subcutaneous toxicity in dogs; assay type: in vivo; conditions: 1 mL/kg of a 6-mg/mL concentration of L-lysine; same animals
Source text: One group of one male and one female Beagle dogs received single escalating subcutaneous doses of Rx100.Lysine at 10 and 1 (female)/1.52 (male) mg/kg. […] Parameters evaluated included clinical signs, body weight, and gross pathology. The male and female dog survived until scheduled necropsy on Day 15. Administration of Rx100 had no effect on body weight or general health of the animals. Noteworthy clinical observations were confined to skin and behavior effects. Both animals scratched at the dose site, likely contributing to observations of redness at the dose site. Swelling and a thickened/raised area were also observed during the observation period. Clinical observations were sufficient to warrant the injection of diphenhydramine. […] Following injection of the L-lysine component of the formulation at an independent site, redness, scratching, or swelling was not seen.

[1] = Rx100 salt screening (solid formation, XRPD wet/dry, filterability, exposure to RH > 90%); conditions: for Filterability / Crystallinity / Polymorphic behavior: Rx100 salt formed with the named base; for Crystallinity / Polymorphic behavior: XRPD; for XRPD, wet: stage 2 round 2, Rx100 free acid + 1 eq base (label = base); for All solvents were evaporated to get a gel: label = base, nature/filterability of the solid
Experimental: We designed a complex and unconventional screening regime to screen for Rx100 crystalline salts. […] The screening regime is described as follows.
Rx100.FA in the form of a viscous liquid and eighteen counter ions were used as starting materials. These counter ions are listed and numbered in Table 4. The numbers will be used for grouping the resulting solids. The screening was performed in three stages.
Stage one (1) included screening 11 counter ions: sodium hydroxide, ammonium hydroxide, ethylenediamine, diethylamine, tromethamine (Tris), hydroxyethyl morpholine, benzathine, dimethylamino ethanol, L-Arginine, L-Lysine, L-Histidine. […] In stage 1, we performed three rounds of experiment.
In the first round of experiment, four (4) solvent systems, i.e., isopropyl alcohol (IPA), diethyl ether (DEE), IPA:water (a mixture at a volume ratio of 95:5) and tetrahydrofuran (THF), were used. Thus in this first round of screening, 44 individual base-acid reactions were conducted in 44 vials.
First, Rx100.FA and each of the bases were mixed in a vial. […] In each of the 44 vials, 211.1 μL of the prepared liquid, which was equivalent to about 35 mg of Rx100.FA, was first dispensed. Then, one equivalent (molar) of each of the 11 bases was dispensed in its corresponding vial. For example, the base sodium hydroxide was added to vials 1, 12, 23 and 34. Similarly, L-histidine was added to vials 11, 22, 33 and 44. Observations were recorded upon addition of the bases in to Rx100.FA.
Second, the solvent in each mixture was depleted. All vials containing the mixtures of Rx100.FA and each of the bases were left under moderate vacuum and nitrogen bleed at room temperature overnight to evaporate the solvent. The vials were then kept under full vacuum for about an hour to make sure the solvents (ethanol and water) are evaporated. Observations on formation of solid upon evaporation were recorded.
Third, solvents were added in each vial to induce solid formation. In each vial, a stir bar and one of the four selected solvents (each 5 volumes with respect to the Rx100.FA) were added. The vials were then capped. IPA was added to the first set of 11 vials (1-11), DEE added to the second set of 11 vials (12-22), IPA:water added to the third set of 11 vials (23-33), and THF added to the fourth set of 11 vials (34-44). The vials were left at room temperature while stirring for at least 5 hours. Observations were recorded.
The first set of XRPD analyses were recorded as “wet” samples. The solids were dried under vacuum for 1 hour and at room temperature followed by XRPD as “dry” sample. The dry solid was then exposed to relative humidity of more than 90% overnight followed by XRPD analysis. For XRPD naming, a number and a letter were used. The number refers to the counter ion and the letter refers to the chronological discovered XRPD pattern of that particular salt.
In the second round of experiment of stage one, another four (4) solvent systems, i.e., methanol (MeOH), tert-Butyl methyl ether (tBME), ethyl acetate and toluene, were used in the same 44 vials as used in the first round experiment. The solvents in all 44 vials from the first round were evaporated to dryness under vacuum and nitrogen bleed. The 4 new solvents were then added into the vials. Methanol was added to the first set of 11 vials (1-11), tBME added to the second set of 11 vials (12-22), Ethyl acetate added to the third set of 11 vials (23-33), and Toluene added to the fourth set of 11 vials (34-44). The same procedure as in the first round of experiment was followed for these new solvents and samples were taken for XRPD analysis.
In the third round of experiment, effect of base equivalence was assessed. […] After addition of the extra base, the previous solvent was evaporated and new solvents added.

[2] = Short term (24 hour) slurry tests, XRPD of wet and dried solids; assay type: physicochemical; conditions: 24 hour slurry; Water; one cell for 25° C. and 50° C.; starting form A
Experimental: Second, short term slurry tests were performed. Rx100.L-Lysine salt was slurried for a minimum of 24 hours in 15 different solvent systems at two different temperatures (25 and 50° C.) in an attempt to provide information for crystallization experiments and design of polymorph screening experiments. A 48 position Chemglass reaction block was used for heating and stirring the slurries which were in 2 mL HPLC vials. After the due time, vials were centrifuged and the wet solids were used for X-ray diffraction. […]

[3] = Characterization of scaled-up Rx100.L-Lysine salt (XRPD, DSC, TGA, 1H NMR, Karl Fischer, optical microscopy); assay type: physicochemical; conditions: scaled-up lot 1980-18-1
Experimental: The Rx100.L-Lysine salts were dried overnight under vacuum at 35° C. and then characterized by XRPD, DSC, TGA, ^1HNMR, Karl Fischer (KF), optical microscopy and moisture sorption assays.
Ratio of Rx-100 to L-Lysine in the salt was calculated based on the ^1HNMR integration ratio of set-A protons to set-B protons of the salt. Set-A protons are from Rx-100 part of the molecule and set-B protons are from L-Lysine part of the molecule. These two set of protons were selected because they are very well separated from rest of the protons in the ^1HNMR of the molecule. As shown in the molecular scheme in FIG. 39, set-A protons correspond to two olefinic protons of Rx100 and appear at […] in the ^1H NMR. In contrast, set-B protons correspond to methylene of lysine part and appear at […]. Comparison of ^1H NMR integration values for set-A and set-B protons indicates the ratio of Rx100 to lysine as 1:1.5.
The exhibition of birefringence observed by optical microscopy confirmed the crystallinity observed by XRPD

[4] = Gravimetric moisture sorption analysis, with XRPD afterwards; assay type: physicochemical; conditions: lot 1980-18-1; 95% RH; reversible
Experimental: Moisture sorption analysis of the Rx100.L-Lysine salt was performed by equilibrating the sample at 25° C. and 50% RH to simulate ambient lab conditions. Humidity then decreased to 0% RH, increased from 0 to 95% RH, reduced from 95 to 0% RH, increased from 0 to 95% RH and then decreased from 95 to 50% RH.

[5] = target: LPA2 receptors from the rhesus (Macaca mulatta, UniProt I2CXV3); assay: Calcium-mobilization assay (FURA-2), rhesus LPA2; assay type: cell-based; conditions: LPA2 DKO MEF, rhesus, mean
Sequence of LPA2 receptors from the rhesus (I2CXV3 1-351): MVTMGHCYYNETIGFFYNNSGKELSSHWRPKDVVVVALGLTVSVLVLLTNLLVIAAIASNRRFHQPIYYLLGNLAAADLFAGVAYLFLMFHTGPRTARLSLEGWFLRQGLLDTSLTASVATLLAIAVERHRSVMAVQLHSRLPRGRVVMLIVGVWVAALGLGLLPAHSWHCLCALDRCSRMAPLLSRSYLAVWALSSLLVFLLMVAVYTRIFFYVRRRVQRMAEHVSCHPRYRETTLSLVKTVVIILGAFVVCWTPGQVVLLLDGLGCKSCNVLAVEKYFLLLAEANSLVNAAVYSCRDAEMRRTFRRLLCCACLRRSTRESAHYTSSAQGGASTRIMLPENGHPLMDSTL
Experimental: (§1) We investigated structure-activity relationships across species, LPAR subtypes and between Rx100 and two known process impurities encountered in manufacture: Rx103 (‘E’ isomer) and Rx200 (oleyl phosphate and impurity, which can be an Rx100 degradant along with oleyl alcohol). Rx100, Rx103, Rx200 and native LPA were investigated at different human LPAR subtypes. In addition, the activity of these compounds was evaluated at LPA2 receptors from the rhesus, rat and mouse species. Human LPA1/2/3 subtypes were transfected into mouse embryonic fibroblasts (MEF) or rat hepatoma cells (RH7777)—both of which are normally non-responsive or null to LPA. Human LPA4 was transfected into Chinese hamster ovary (CHO) cells and LPA5 into the B103 neuroblastoma cell line. […] The B103 rat neuroblastoma cell line is endogenously nonresponsive to LPA but expresses heterologous LPA5 receptors well. […] LPAR activation elicits a G-protein-mediated transient rise in intracellular calcium level that is proportional to the concentration of LPA applied. The intracellular calcium level was quantified by the calcium-selective fluorescent indicator FURA-2 (e.g., increased intracellular calcium surge=increased fluorescence).

[6] = target: T1, LPA2 receptors from the mouse (Mus musculus, UniProt Q9JL06); assay: Calcium-mobilization assay (FURA-2), mouse LPA2; assay type: cell-based; conditions: LPA2 DKO MEF, mouse, mean
T1 construct: expressed in transfected cells
T1 sequence (Q9JL06 whole entry): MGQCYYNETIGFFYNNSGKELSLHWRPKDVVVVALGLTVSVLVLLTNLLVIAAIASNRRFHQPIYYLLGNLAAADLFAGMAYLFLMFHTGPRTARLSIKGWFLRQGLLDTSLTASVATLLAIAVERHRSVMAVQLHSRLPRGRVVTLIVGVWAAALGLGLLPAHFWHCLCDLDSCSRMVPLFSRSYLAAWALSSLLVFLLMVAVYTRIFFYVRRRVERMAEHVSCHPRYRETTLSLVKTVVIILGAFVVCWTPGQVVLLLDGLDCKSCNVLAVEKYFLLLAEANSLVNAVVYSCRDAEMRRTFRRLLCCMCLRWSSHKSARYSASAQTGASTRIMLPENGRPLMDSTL
Experimental: as §1

Control CHO = assay: Calcium-mobilization assay, untransfected Control CHO cells; assay type: cell-based, Chinese hamster; conditions: Control CHO (untransfected; endogenously expresses LPA1)
Experimental: as §1

Human LPA1 = target: T2, Human LPA1 (Homo sapiens, UniProt Q92633); assay: Calcium-mobilization assay (FURA-2), human LPA1 transfected cells; assay type: cell-based; conditions: mean; for EC50: read-out: EC50
T2 construct: expressed in transfected cells; host or cells: mouse embryonic fibroblasts (MEF)
T2 sequence (Q92633 whole entry): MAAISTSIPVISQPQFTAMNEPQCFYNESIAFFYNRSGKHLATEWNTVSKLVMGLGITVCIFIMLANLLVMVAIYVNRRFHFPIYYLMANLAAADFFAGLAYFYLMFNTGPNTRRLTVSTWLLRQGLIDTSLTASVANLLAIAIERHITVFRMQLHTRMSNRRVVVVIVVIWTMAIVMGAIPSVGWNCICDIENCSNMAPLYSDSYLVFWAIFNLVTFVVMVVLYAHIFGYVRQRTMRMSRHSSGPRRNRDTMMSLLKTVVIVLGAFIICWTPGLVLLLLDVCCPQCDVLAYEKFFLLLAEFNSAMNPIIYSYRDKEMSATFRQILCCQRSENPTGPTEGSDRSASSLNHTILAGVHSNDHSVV
Experimental: as §1

[7] = target: LPA2 receptors from the rat (Rattus norvegicus, UniProt A0ABK0LT65); assay: Calcium-mobilization assay (FURA-2), rat LPA2; assay type: cell-based; conditions: LPA2 DKO MEF, rat, mean
Sequence of LPA2 receptors from the rat (A0ABK0LT65 1-348): as the sequence (Q9JL06 whole entry) above, with A153V, A189V, Y211F, M310T, S316H, R321H, A324S, Q327R, R341H counted along it
Experimental: as §1

NCCCC[C@H](N)C(=O)O [L-lysine component, L-lysine]
tolerability of subcutaneous injection (Beagle dogs): well tolerated

CCCCCCCC/C=C\CCCCCCCCOP(O)(O)=S.NCCN [Rx100 Ethylenediamine salt]
Stability at high humidity [1]: stable at high humidity
Filterability [1]: filterable
Crystallinity [1]: showed crystallinity
Polymorphic behavior [1]: Creamy/oily on XRPD
Crystallinity ([1]; listed as Ethyldiamine): yes
Filterability ([1]; listed as Ethyldiamine): yes

CCCCCCCC/C=C\CCCCCCCCOP(O)(O)=S.NCCCC[C@H](N)C(=O)O [Rx100. L-Lysine Salt]
Resulting Form [2]: Dissolved

CCCCCCCC/C=C\CCCCCCCCOP(O)(O)=S.NCCCC[C@H](N)C(=O)O [Rx100. L-Lysine salt]
KF [Wt % water] [3]: 1.8 Wt % water
Optical Microscopy [3]: Birefringent
TGA [% Wt. loss] [3]: 1.1 % Wt. loss
XRPD [Form] [3]: Crystalline
Moisture Sorption [Wt. % at 95% RH] [4]: 20.6 Wt. %

CCCCCCCC/C=C\CCCCCCCCOP([O-])(O)=S.[Na+] [Sodium]
Filterability [1]: no
Crystallinity [1]: yes
Polymorphic behavior [1]: Polymorphic on XRPD

NC(CO)(CO)CO [Tromethamine]
Filterability [1]: no
Crystallinity [1]: no
Polymorphic behavior [1]: Oily on XRPD
RH > 90% overnight (XRPD pattern or state after exposure) ([1]; stage 1, third round, 2.1 eq of base, listed as 4-16): 5-A + Tris

Ca(OH)2
XRPD, wet ([1]; Ethyl acetate): Calcium
XRPD, wet ([1]; IPA:water (1:1)): Calcium

L-Arginine
Filterability [1]: yes*
Crystallinity [1]: yes
Polymorphic behavior [1]: Greasy on XRPD

Piperazine
Filterability [1]: yes
Crystallinity [1]: yes
Polymorphic behavior [1]: Multiple patterns on XRPD
Solid upon evaporation (Y/N) ([1]; stage 3, 35 mg Rx100 free acid + base (label = base), 1.05 eq, L-lysine 2.00 eq): Gel
All solvents were evaporated to get a gel ([1]; stage 3, 1.05 eq, L-lysine 2.00 eq, solvent MeOH:Water [9:1]): Greasy.
All solvents were evaporated to get a gel ([1]; stage 3, 1.05 eq, L-lysine 2.00 eq, solvent MeOH): Greasy.

lysophosphatidic acid [LPA, reference compound]
Emax (% of LPA) [5]: 100 % of LPA
EC50 ([5]; read-out: EC50): 1.3 nM
Emax (% of LPA) [6]: 100 % of LPA
EC50 ([6]; read-out: EC50): 4.4 nM
Emax (% of LPA) (Control CHO): 12%
EC50 (Control CHO; read-out: EC50): 605 nM
Emax (% of LPA) (Human LPA1; LPA1 DKO MEF, human): 100 % of LPA
EC50 (Human LPA1; LPA1 DKO MEF, human): 354 nM
Emax (% of LPA) (Human LPA1; LPA1 RH7777, human): 100 % of LPA
EC50 (Human LPA1; LPA1 RH7777, human): 28 nM
Emax (% of LPA) [7]: 100 % of LPA
EC50 ([7]; read-out: EC50): 1.7 nM
